# Measurements as given in patent publication US8022052B2, “Inhibition of PPAR gamma expression by specific osteogenic oxysterols” (The Regents of the University of California, priority 2006, dated 2011).
# Tests used:
# M2 cells = assay: 45Ca incorporation assay measuring mineralization in M2 cells; type: cell-based
# From the text: One aspect of the invention is an oxysterol (e.g. an isolated oxysterol) of the invention as represented by Formula I, above. For example, the compounds designated as Oxy 7, Oxy 9, Oxy11, Oxy12, Oxy13, Oxy 14, and Oxy 15 can stimulate at least a measurable amount of a hedgehog-mediated pathway and/or osteomorphogenesis or osteoproliferation (or a marker thereof), and/or can inhibit at least a measurable amount of adipocyte morphogenesis or adipocyte proliferation (or a marker thereof). Oxy 3 and Oxy 4 can act as enhancers of activity in combination with other oxysterols.
# [1] = system: M2-10B4 (M2) murine pluripotent bone MSC line; assay: Tro-induced adipocyte formation in M2 cells, Oil red O staining; type: cell-based, mouse; conditions: for inhibition of Tro-induced adipocyte formation: M2 cells, 10 μM Tro, oxysterol 5 μM, 10 days
# Description: (§1) M2 mouse MSCs were purchased from American Type Culture Collection (ATCC, Rockville, Md., USA). […] Cell culture was performed in 24- and 6-well plates for adipogenic differentiation and gene expression studies, respectively, and treatment with test agents was done in growth medium.
# Oil red O staining for detection of adipocytes was performed as previously described. […] The number of adipocytes was quantitated by counting Oil red O-positive cells in five separate fields per well, in three wells per experimental condition. The results are reported as the mean of triplicate determination ±SD.
# (§2) Adipocyte formation was examined by Oil red O staining. […] PPARγ expression was assessed by RT-qPCR after treating M2 cells with Tro in the presence or absence of 20S. […] M2 cells at confluence were treated with control vehicle, 10 μM Tro, or 5 μM 20S, alone or in combination for 24 hours (FIG. 2A), 48 hours (FIG. 2B), and 96 hours (FIG. 2C). PPARγ mRNA expression was measured by quantitative real-time PCR.
# (§3) After 10 days, adipocyte formation was measured by Oil red O staining. The number of adipocytes was determined by counting Oil red O-positive cells in five separate fields per well, in three wells per experimental condition. […] After 48 h, PPARγ mRNA expression was measured by quantitative real-time PCR. […] Luciferase activity was measured after 24 h and normalized for transfection efficiency using the Renilla luciferase activity.
# Synthetic oxysterol compounds were studied for inhibition of adipogenesis and PPAR expression. […] After 10 days of treatment, cells were stained with Oil-red-O to detect adipocytes, and the number of positively stained cells was determined using light microscopy. Data from a representative experiment are reported as the mean of triplicate determination (average of five fields per well, 3 wells per experimental condition) ±SD.
# PPARγ = PPARγ mRNA expression in M2 cells by RT-qPCR; type: cell-based, mouse; conditions: M2 cells; for reversal of the inhibitory effect of 20S on Tro-induced PPARγ expression: signaling inhibitor
# Description: as §1
# Total RNA was extracted with the RNA isolation kit from Stratagene (La Jolla, Calif., USA) according to the manufacturer's instructions. RNA was DNase-treated using DNA-free kit from Ambion (Austin, Tex., USA). Three micrograms of RNA was reverse-transcribed using reverse transcriptase from Stratagene to make single-stranded cDNA. The cDNA was mixed with Qi SYBR Green Supermix (Bio-Rad) for quantitative RT-PCR assay using a Bio-Rad I-cycler IQ quantitative thermocycler. All PCR samples were prepared in triplicate wells of a 96-well plate. After 40 cycles of PCR, melt curves were examined to ensure primer specificity. Fold changes in gene expression were calculated using the ΔΔCt method. […] Primers used are as follows: PPARγ2 (5′-[…]-3′ and 5′-[…]-3′), C/EBPα (5′-[…]-3′ and 5′-[…]-3′), ap2 (5′-[…]-3′ and 5′-[…]-3′), LPL (5′-[…]-3′ and 5′-[…]-[…]), GATA2 (5′-[…]-3′ and 5′-[…]-3′), GATA3 (5′-[…]-3′ and 5′-[…]-3′), GILZ (5′-[…]-3′ and 5′-[…]-3′), and pref-1 (5′-[…]-3′ and 5′-[…]-3′).
# as §2, §3
# After 48 hours of treatment, RNA was extracted from cells and analyzed for PPARγ expression by Q-RT-PCR. Data from a representative experiment, normalized to GAPDH expression, are reported as the mean of triplicate determinations ±SD.
# [2] = system: M2-10B4 (M2) murine pluripotent bone MSC line; conditions: cited from earlier work
molecule,measurement,setting,value
C[C@H](O)[C@@H](C)C1CCC2C3CC=C4C[C@@H](O)CC[C@]4(C)C3CC[C@@]21C (stereo partly shown) [Oxy4],incorporation of 45Ca in combination with 20(S)-hydroxycholesterol over 20(S)-hydroxycholesterol alone,M2 cells,enhance
Cc1cccc(C[C@](C)(O)C2CCC3C4CC=C5C[C@@H](O)CC[C@]5(C)C4CC[C@@]32C)c1 (stereo partly shown) [Oxy11],inhibition of Tro-induced adipocyte formation,[1],inhibitory effect
"CC(C)CCCC[C@](C)(O)C1CCC2C3CC=C4C[C@@H](O)CC[C@]4(C)C3CC[C@@]21C (stereo partly drawn) [Oxy12, (3S,8S,9S,10R,13S,14S,17S)-2,3,4,7,8,9,10,11,12,13,14,15,16,17-tetradecahydro-17-((S)-2-hydroxy-7-methyloctan-2-yl)-10,13-dimethyl-1H-cyclopenta[α]phenanthren-3-ol]",inhibition of Tro-induced adipocyte formation,[1],inhibitory effect
C=C(C)CCC[C@](C)(O)C1CCC2C3CC=C4C[C@@H](O)CC[C@]4(C)C3CC[C@@]21C (stereo partly shown) [Oxy13],inhibition of Tro-induced PPARγ mRNA expression,"PPARγ; 10 μM Tro, oxysterol 5 μM, 24, 48, 96 h (20S), 48 h (Oxy13)",inhibits
same,inhibition of Tro-induced adipocyte formation,[1],inhibitory effect
CC(C)=CCC[C@](C)(O)C1CCC2C3CC=C4C[C@@H](O)CC[C@]4(C)C3CC[C@@]21C (stereo partly shown) [Oxy14],inhibition of Tro-induced adipocyte formation,[1],inhibitory effect
CC(C)CC[C@@H](O)[C@](C)(O)C1CCC2C3CC=C4C[C@@H](O)CC[C@]4(C)C3CC[C@@]21C (stereo partly shown) [Oxy16],inhibition of Tro-induced adipocyte formation,[1],inhibitory effect
CC[C@H](O)[C@@H](C)C1CCC2C3CC=C4C[C@@H](O)CC[C@]4(C)C3CC[C@@]21C (stereo partly shown) [Oxy 3],incorporation of 45Ca in combination with 20(S)-hydroxycholesterol over 20(S)-hydroxycholesterol alone,M2 cells,enhance
"CC(C)CC[C@@H](O)[C@@H](C)[C@H]1CC[C@H]2[C@@H]3CC=C4C[C@@H](O)CC[C@]4(C)[C@H]3CC[C@]12C [Oxy 22R, 22(R)-hydroxycholesterol]",adipogenic differentiation of M2 cells (previously reported),[2],inhibit
"CC(C)CC[C@H](O)[C@@H](C)[C@H]1CC[C@H]2[C@@H]3CC=C4C[C@@H](O)CC[C@]4(C)[C@H]3CC[C@]12C [Oxy 22S, 22(S)-hydroxycholesterol]",adipogenic differentiation of M2 cells (previously reported),[2],inhibit
COc1cccc(-c2cc(=O)c3ccccc3o2)c1N [PD98059],reversal of the inhibitory effect of 20S on Tro-induced PPARγ expression,PPARγ,45%
same,reversal of the inhibitory effects of 20S on Tro-induced adipocyte formation,"[1]; 10-day M2 cultures, Cyclopamine 4 μM, Dkk-1 1 μg/mL, PD98059 20 μM",50%
"Dkk-1: canonical Wnt signaling inhibitor (protein, UniProt O94907 32-266, looked up) Dickkopf-related protein 1: TLNSVLNSNAIKNLPPPLGGAAGHPGSAVSAAPGILYPGGNKYQTIDNYQPYPCAEDEECGTDEYCASPTRGGDAGVQICLACRKRRKRCMRHAMCCPGNYCKNGICVSSDQNHFRGEIEETITESFGNDHSTLDGYSRRTTLSSKMYHTKGQEGSVCLRSSDCASGLCCARHFWSKICKPVLKEGQVCTKHRRKGSHGLEIFQRCYCGEGLSCRIQKDHHQASNSSRLHTCQRH",reversal of the inhibitory effect of 20S on Tro-induced PPARγ expression,PPARγ,10%
